Species on record: Rattus norvegicus
Experiment: DrugMatrix - Regimen: Daily Repeat
Format: toxicity, organism-based, Sprague-Dawley
Design: regimen Daily Repeat, gender Male, age 6-8 weeks
Conditions: in vivo, po, route oral GAVAGE, vehicle .5 % CMC; for ABSOLUTE BASOPHIL / ABSOLUTE EOSINOPHIL / ABSOLUTE LYMPHOCYTE / ABSOLUTE MONOCYTE / ABSOLUTE SEGMENTED NEUTROPHIL / BASOPHIL / EOSINOPHIL / ERYTHROCYTE COUNT / HEMATOCRIT / HEMOGLOBIN / LEUKOCYTE COUNT / LYMPHOCYTE / MEAN CORPUSCULAR HEMOGLOBIN / MEAN CORPUSCULAR HEMOGLOBIN CONCENTRATION / MEAN CORPUSCULAR VOLUME / MONOCYTE / NEUTROPHIL / NUCLEATED RED BLOOD CELLS / PLATELET COUNT: tissue Blood; for ALANINE AMINOTRANSFERASE / ALBUMIN / ALKALINE PHOSPHATASE / ASPARTATE AMINOTRANSFERASE / BLOOD UREA NITROGEN / CARBON DIOXIDE / CHLORIDE / CHOLESTEROL / CREATINE PHOSPHOKINASE / CREATININE / GLUCOSE / LACTATE DEHYDROGENASE / LIPASE / PHOSPHORUS / POTASSIUM / SODIUM / TOTAL BILIRUBIN / TOTAL PROTEIN / URIC ACID: tissue Plasma
[1] = 22 mg/kg, 72 h, dose level High, time 3 day
[2] = 22 mg/kg, 120 h, dose level High, time 5 day
[3] = […], 72 h, dose 2.2 mg/Kg, dose level Low, time 3 day
[4] = […], 120 h, dose 2.2 mg/Kg, dose level Low, time 5 day

## Cc1cc(C(C#N)c2ccc(Cl)cc2)c(Cl)cc1NC(=O)c1cc(I)cc(I)c1O (configuration not stated) [CLOSANTEL]
[1]
  ABSOLUTE BASOPHIL: 0 CELLS/uL
  ABSOLUTE EOSINOPHIL: 101.33 CELLS/uL
  ABSOLUTE LYMPHOCYTE: 16742.67 CELLS/uL
  ABSOLUTE MONOCYTE: 54 CELLS/uL
  ABSOLUTE SEGMENTED NEUTROPHIL: 802 CELLS/uL
  BASOPHIL: 0%
  EOSINOPHIL: 0.67%
  ERYTHROCYTE COUNT: 4.94 x10E6/uL
  HEMATOCRIT: 31.43%
  HEMOGLOBIN: 12.7 G/DL
  LEUKOCYTE COUNT: 17.7 x10E3/uL
  LYMPHOCYTE: 94.67%
  MEAN CORPUSCULAR HEMOGLOBIN: 25.77 pg
  MEAN CORPUSCULAR HEMOGLOBIN CONCENTRATION: 40.4 G/DL
  MEAN CORPUSCULAR VOLUME: 63.77 fL
  MONOCYTE: 0.33%
  NEUTROPHIL: 4.33%
  NUCLEATED RED BLOOD CELLS: 0 /100WBC
  PLATELET COUNT: 1110.67 x10E3/uL
  ALANINE AMINOTRANSFERASE: 49.67 u/L
  ALBUMIN: 4.27 G/DL
  ALKALINE PHOSPHATASE: 612.33 u/L
  ASPARTATE AMINOTRANSFERASE: 122.67 u/L
  BLOOD UREA NITROGEN: 16.33 mg/dL
  CARBON DIOXIDE: 27.67 mmol/L
  CHLORIDE: 103.67 MEQ/L
  CHOLESTEROL: 73 mg/dL
  CREATINE PHOSPHOKINASE: 369 u/L
  CREATININE: 0.19 mg/dL
  GLUCOSE: 171.33 mg/dL
  LACTATE DEHYDROGENASE: 163.67 u/L
  LIPASE: 9 u/L
  PHOSPHORUS: 12.43 mg/dL
  POTASSIUM: 6.8 MEQ/L
  SODIUM: 145.83 MEQ/L
  TOTAL BILIRUBIN: 0.2 mg/dL
  TOTAL PROTEIN: 5.73 G/DL
  URIC ACID: 2.13 mg/dL
[2]
  ABSOLUTE BASOPHIL: 0 CELLS/uL
  ABSOLUTE EOSINOPHIL: 0 CELLS/uL
  ABSOLUTE LYMPHOCYTE: 18393.33 CELLS/uL
  ABSOLUTE MONOCYTE: 203.33 CELLS/uL
  ABSOLUTE SEGMENTED NEUTROPHIL: 2403.33 CELLS/uL
  BASOPHIL: 0%
  EOSINOPHIL: 0%
  ERYTHROCYTE COUNT: 5.7 x10E6/uL
  HEMATOCRIT: 36.13%
  HEMOGLOBIN: 14.47 G/DL
  LEUKOCYTE COUNT: 21 x10E3/uL
  LYMPHOCYTE: 87.33%
  MEAN CORPUSCULAR HEMOGLOBIN: 25.4 pg
  MEAN CORPUSCULAR HEMOGLOBIN CONCENTRATION: 40.03 G/DL
  MEAN CORPUSCULAR VOLUME: 63.4 fL
  MONOCYTE: 1%
  NEUTROPHIL: 11.67%
  NUCLEATED RED BLOOD CELLS: 0.33 /100WBC
  PLATELET COUNT: 1280.33 x10E3/uL
  ALANINE AMINOTRANSFERASE: 76 u/L
  ALBUMIN: 4.63 G/DL
  ALKALINE PHOSPHATASE: 586.33 u/L
  ASPARTATE AMINOTRANSFERASE: 169.33 u/L
  BLOOD UREA NITROGEN: 25 mg/dL
  CARBON DIOXIDE: 32 mmol/L
  CHLORIDE: 101.67 MEQ/L
  CHOLESTEROL: 84 mg/dL
  CREATINE PHOSPHOKINASE: 365.33 u/L
  CREATININE: 0.32 mg/dL
  GLUCOSE: 141.67 mg/dL
  LACTATE DEHYDROGENASE: 335.67 u/L
  LIPASE: 11.67 u/L
  PHOSPHORUS: 11.47 mg/dL
  POTASSIUM: 7.16 MEQ/L
  SODIUM: 143.5 MEQ/L
  TOTAL BILIRUBIN: 0.2 mg/dL
  TOTAL PROTEIN: 6 G/DL
  URIC ACID: 1.9 mg/dL
[3]
  ABSOLUTE BASOPHIL: 0 CELLS/uL
  ABSOLUTE EOSINOPHIL: 27.33 CELLS/uL
  ABSOLUTE LYMPHOCYTE: 7010.67 CELLS/uL
  ABSOLUTE MONOCYTE: 50 CELLS/uL
  ABSOLUTE SEGMENTED NEUTROPHIL: 645.33 CELLS/uL
  BASOPHIL: 0%
  EOSINOPHIL: 0.33%
  ERYTHROCYTE COUNT: 5.2 x10E6/uL
  HEMATOCRIT: 33.97%
  HEMOGLOBIN: 13.53 G/DL
  LEUKOCYTE COUNT: 7.73 x10E3/uL
  LYMPHOCYTE: 90.33%
  MEAN CORPUSCULAR HEMOGLOBIN: 26.1 pg
  MEAN CORPUSCULAR HEMOGLOBIN CONCENTRATION: 39.83 G/DL
  MEAN CORPUSCULAR VOLUME: 65.4 fL
  MONOCYTE: 0.67%
  NEUTROPHIL: 8.67%
  NUCLEATED RED BLOOD CELLS: 0 /100WBC
  PLATELET COUNT: 1123.67 x10E3/uL
  ALANINE AMINOTRANSFERASE: 51 u/L
  ALBUMIN: 4.37 G/DL
  ALKALINE PHOSPHATASE: 453.33 u/L
  ASPARTATE AMINOTRANSFERASE: 101.67 u/L
  BLOOD UREA NITROGEN: 17.33 mg/dL
  CARBON DIOXIDE: 35.33 mmol/L
  CHLORIDE: 98.67 MEQ/L
  CHOLESTEROL: 78.67 mg/dL
  CREATINE PHOSPHOKINASE: 529.33 u/L
  CREATININE: 0.26 mg/dL
  GLUCOSE: 127 mg/dL
  LACTATE DEHYDROGENASE: 156.67 u/L
  LIPASE: 9.67 u/L
  PHOSPHORUS: 11.27 mg/dL
  POTASSIUM: 6.78 MEQ/L
  SODIUM: 144.6 MEQ/L
  TOTAL BILIRUBIN: 0.17 mg/dL
  TOTAL PROTEIN: 6.27 G/DL
  URIC ACID: 0.93 mg/dL
[4]
  ABSOLUTE BASOPHIL: 0 CELLS/uL
  ABSOLUTE EOSINOPHIL: 0 CELLS/uL
  ABSOLUTE LYMPHOCYTE: 9886.33 CELLS/uL
  ABSOLUTE MONOCYTE: 68.67 CELLS/uL
  ABSOLUTE SEGMENTED NEUTROPHIL: 945 CELLS/uL
  BASOPHIL: 0%
  EOSINOPHIL: 0%
  ERYTHROCYTE COUNT: 5.61 x10E6/uL
  HEMATOCRIT: 35.17%
  HEMOGLOBIN: 14 G/DL
  LEUKOCYTE COUNT: 10.9 x10E3/uL
  LYMPHOCYTE: 90.33%
  MEAN CORPUSCULAR HEMOGLOBIN: 24.93 pg
  MEAN CORPUSCULAR HEMOGLOBIN CONCENTRATION: 39.83 G/DL
  MEAN CORPUSCULAR VOLUME: 62.63 fL
  MONOCYTE: 0.67%
  NEUTROPHIL: 9%
  NUCLEATED RED BLOOD CELLS: 0 /100WBC
  PLATELET COUNT: 1205.67 x10E3/uL
  ALANINE AMINOTRANSFERASE: 49 u/L
  ALBUMIN: 4.43 G/DL
  ALKALINE PHOSPHATASE: 427.33 u/L
  ASPARTATE AMINOTRANSFERASE: 75 u/L
  BLOOD UREA NITROGEN: 18 mg/dL
  CARBON DIOXIDE: 29.67 mmol/L
  CHLORIDE: 103 MEQ/L
  CHOLESTEROL: 72.33 mg/dL
  CREATINE PHOSPHOKINASE: 164.33 u/L
  CREATININE: 0.18 mg/dL
  GLUCOSE: 146.67 mg/dL
  LACTATE DEHYDROGENASE: 113.67 u/L
  LIPASE: 8.33 u/L
  PHOSPHORUS: 13.67 mg/dL
  POTASSIUM: 7.15 MEQ/L
  SODIUM: 146.83 MEQ/L
  TOTAL BILIRUBIN: 0.23 mg/dL
  TOTAL PROTEIN: 6.6 G/DL
  URIC ACID: 1.7 mg/dL

— ChEMBL document CHEMBL3885881, “DrugMatrix”
